# Experimental data: patent US7396624B2, “Electrophotographic photoreceptor containing naphthalenetetracarboxylic acid diimide derivatives and electrophotographic imaging apparatus employing the same” (Samsung Electronics Co., Ltd., priority 2004, dated 2008)
# Experiment: Solubility Test (amount of methylene chloride to completely dissolve 1 g of compound)
# Type: physicochemical
# Conditions: room temperature, methylene chloride added dropwise while stirring
# Protocol: 1 g of the compound to be tested was added to a test tube at room temperature and methylene chloride was added dropwise while stirring to determine the amount of methylene chloride required to completely dissolve 1 g of the test compound.
row,Amount of methylene chloride required to dissolve 1 g of a compound [g],SMILES
1,3.5,CC(c1ccccc1)N1C(=O)c2ccc3c4c(ccc(c24)C1=O)C(=O)N(C(C)c1ccccc1)C3=O (stereo not shown) [Compound (1)]
2,17.5,CCC(CC)N1C(=O)c2ccc3c4c(ccc(c24)C1=O)C(=O)N(C(CC)CC)C3=O [Comparative Compound (10a)]
3,25,CC(C)N1C(=O)c2ccc3c4c(ccc(c24)C1=O)C(=O)N(C(C)C)C3=O [Comparative Compound (9a)]
4,2,CCC(c1ccccc1)N1C(=O)c2ccc3c4c(ccc(c24)C1=O)C(=O)N(C(CC)c1ccccc1)C3=O (stereo not shown) [Compound (2)]
